Results published in paper PMC3628991, “Synthesis and evaluation of cell-permeable biotinylated PU-H71 derivatives as tumor Hsp90 probes” (Beilstein Journal of Organic Chemistry, 2013).
Entries after “also recorded” stand apart in the source; their conditions may differ. Where two headings read alike, the source gives them in different places.

Tests used:
[1] = system: Raf-1 (Hsp90 onco-client) in K562 cells; test: Raf-1 steady-state levels by Western blot; assay type: cell-based, human; conditions: for Cancer-cell permeability / uptake: judged from Raf-1 degradation and growth inhibition in K562 cells; for Effect on Raf-1 steady-state levels (Raf-1 degradation): K562 cells, 24 h, probes at 5, 10 and 20 µM
Description: (§1) Having shown that each of the prepared biotinylated molecules retained good affinity for Hsp90, we next evaluated these compounds in two functional read-outs that together measure that the probe has entered a live cancer cell and once inside the cell, has bound to a substantial fraction of oncogenic Hsp90 molecules. Specifically, K562 is a human leukemia cell line dependent on Hsp90 for survival. Thus, in such cells, occupancy of Hsp90’s regulatory pocket by small molecules results in inhibition of its cancer-sheltering properties, leading to cell-growth inhibition associated with degradation of Hsp90-chaperoned onco-proteins. These, such as is the case for Raf-1 in K562 cells, become ubiquitinated and targeted for proteasomal degradation leading to a decrease in their steady-state levels (Figure 2a, Raf-1).
Western blotting. The K562 cell line was purchased from the American Type Culture Collection (Manassas, VA) and cultured in Roswell Park Memorial Institute (RPMI) supplemented with 10% fetal bovine serum, 1% L-glutamine, 1% penicillin and streptomycin. Cells were plated for 24 h prior to treatment for the indicated times with DMSO (vehicle) or with the indicated compounds. Protein extracts were prepared in 50 mM Tris pH 7.4, 150 mM NaCl and 1% NP-40 lysis buffer. Protein concentrations were measured by using the BCA kit (Pierce) according to the manufacturer's instructions. Protein lysates (50 μg) were resolved by SDS-PAGE, transferred onto nitrocellulose membrane and incubated with an anti-Raf-1 antibody from rabbit (1:500, sc-133, Santa Cruz) or anti-β-actin from mouse (1:2,500, A1978, Sigma-Aldrich). Membranes were then incubated with the corresponding peroxidase-conjugated secondary antibody (1:3,000 dilution) and visualized by the ECL detection reagent (Amersham).

K562 cells = test: Growth inhibition assay (Alamar Blue); assay type: cell-based; conditions: Homo sapiens, K562, 72 h, read-out: IC50 Growth inhibition
Description: as §1
Growth inhibition assay. The effect of compounds on cell growth was evaluated with the Alamar Blue assay. In summary, K562 cells were plated at 20,000 cells/well on Costar 96-well plates. Treatment with the probes added at the indicated concentrations in triplicate wells was performed on the subsequent day and lasted for 72 h. The Alamar Blue reagent resazurin (440 μM stock) was added at the end of the treatment to result in a final concentration of 50 μM. Plates were read 6 h later by using the Analyst GT instrument (Fluorescence intensity mode, excitation 530 nm, emission 580 nm, with 560 nm dichroic mirror). Results were analyzed in SoftMax Pro. The percentage of cell growth inhibition was calculated by comparing fluorescence readings obtained from treated versus control cells, accounting for the initial cell population (time zero). The IC50 was calculated as the drug concentration that inhibits cell growth by 50%.

Hsp90 [2] = test: Chemical precipitation (affinity purification on streptavidin beads) from K562 cell lysates; set-up: species or system human; conditions: high-salt wash, Coomassie stain, 10, 25 and 50 µM
Protocol: Having identified which compounds were capable or not of permeating live cancer cells, we next wanted to determine whether the chain length was optimal to maintain concomitant binding to Hsp90 and streptavidin, so as to allow for isolation and identification of Hsp90/onco-client complexes from cancer cells. For this purpose, K562 lysates (Figure 2b and c) were incubated with the biotinylated ligands and the complexes captured on streptavidin beads. To test for the probe’s selectivity, pull-downs were performed with increasing concentrations of biotinylated derivatives (10, 25 and 50 µM; Figure 2c). Additionally, affinity-purified complexes were washed with high-salt buffer to remove Hsp90-bound co-chaperones and client proteins (Figure 2b and c).
(§2) Chemical precipitation from cell lysates. K562 cells were sonicated in 20 mM HEPES, pH 7.3, 50 mM KCl, 5 mM MgCl2, 20 mM Na2MoO4, and 0.01% NP40 lysis buffer containing added protease inhibitors. Affinity beads were prepared by addition of the biotinylated probes to the streptavidin agarose resin (40 μL) (Thermo Scientific), which was first washed three times with the lysis buffer. […] The protein extract (500 μg) was then added to the probe-bound beads, and samples were incubated at 4 °C overnight. Following five washes with lysis buffer, the protein isolates were subjected to SDS-PAGE.

[3] = system: Hsp90 and Hsp90/Raf-1 complexes; test: Chemical precipitation (affinity purification on streptavidin beads) from live K562 cells; assay type: cell-based, human; conditions: for Isolation of Hsp90 from live K562 cells (band at 90 kDa, Coomassie): live K562 cells incubated 4 h, then permeabilized, streptavidin beads; for Isolation of Hsp90 in complex with onco-client protein Raf-1: live K562 cells, Coomassie and Raf-1 immunoblot
Protocol: To test for the probes’ ability to isolate Hsp90 in secondary and tertiary complexes, such as those containing onco-client proteins, affinity purifications were also performed from live K562 cancer cells (Figure 2d). In such a case, the biotinylated tool is added to live cells where the compound binds to Hsp90 in an onco-client-bound conformation, locking and preserving the endogenous Hsp90/protein complexes throughout the subsequent experimental steps (i.e., permeabilization). In contrast, when adding a biotinylated tool to cell homogenates, one may encounter two potential limitations. First, due to the dynamic nature of the Hsp90/client protein interactions, the endogenous complexes may be lost during the homogenization process and thus, pull-downs from homogenates may miss important interactors. Second, during homogenization, certain proteins may lose their well-regulated conformation and potentially aggregate. Such misfolded proteins are prone to be captured by chaperones resulting in “false positives” (i.e., nonendogenous Hsp90 client proteins). False positives increase the “background” on the affinity resin, and the higher the background, the poorer the identification of relevant endogenous Hsp90 complexes will be. Therefore, while it is true that following the addition of the biotinylated tool to cells, these are permeabilized or fixed/permeabilized and thus no longer alive, the capture of the oncogenic Hsp90 complexes takes place in the live cell.
Consequently, in live-cell experiments, cells were first incubated with the biotinylated PU-H71 derivatives to trap and maintain the onco-client complexed to Hsp90. Next, cells were ruptured into a physiological buffer containing molybdate. The purpose of this step is to release the proteins from the cell yet maintain the Hsp90/onco-client protein complexes intact. Following capture of these complexes on the streptavidin beads, complexes were applied to a denaturing gel, then probed by both Coomassie stain (Figure 2d, top panel) and immunoblot (Figure 2d, bottom panel Raf-1 blot).
Chemical precipitation from cells. K562 cells were treated with the indicated compounds for 4 h, after which cells were collected and washed three times with PBS. Protein extracts were prepared by sonicating cells in 20 mM HEPES, pH 7.3, 50 mM KCl, 5 mM MgCl2, 20 mM Na2MoO4, 0.01% NP40 lysis buffer. Streptavidin agarose beads (40 μL) (Thermo Scientific) were washed three times with the lysis buffer and added to 500 μg of the total cellular protein extract diluted in lysis buffer to a final volume of 120 μL. Samples were incubated at 4 °C for 1 h, washed five times with the lysis buffer (or high salt buffer containing 1 M NaCl added to the lysis buffer) and applied to SDS-PAGE. Gels were stained with Coomassie blue (BioRad) according to the manufacturer's instructions.

[4] = system: cytosolic Hsp90 versus Grp94; test: Paralogue selectivity of affinity purification from K562 lysates (Western blot); set-up: species or system human; conditions: overnight, probes 50 µM
Protocol: as §2

Grp94 [5] = molecular target: T1, Grp94 (Homo sapiens, UniProt P14625); test: Affinity for Hsp90 paralogues: Grp94; assay type: binding; conditions: paralogue comparison
Hsp90 [6] = test: Affinity for Hsp90 paralogues: cytosolic Hsp90; assay type: binding; conditions: paralogue comparison
[7] = system: tumor cell Hsp90 complexes (SKBr3 human breast cancer lysate); test: Hsp90 fluorescence polarization competition assay (GM-cy3B displacement) in SKBr3 cancer-cell lysate; assay type: binding; conditions: read-out: Affinity for Hsp90 (FP)
Description: The fraction of tracer bound to Hsp90 was correlated to the mP value and plotted against values of competitor concentrations. The inhibitor concentration at which 50% of bound GM was displaced was obtained by fitting the data.

Grp94 [8] = molecular target: T1, Grp94; conditions: ref Chiosis G, personal communication; cited from earlier work

T1 sequence (P14625 22-803, species assumed): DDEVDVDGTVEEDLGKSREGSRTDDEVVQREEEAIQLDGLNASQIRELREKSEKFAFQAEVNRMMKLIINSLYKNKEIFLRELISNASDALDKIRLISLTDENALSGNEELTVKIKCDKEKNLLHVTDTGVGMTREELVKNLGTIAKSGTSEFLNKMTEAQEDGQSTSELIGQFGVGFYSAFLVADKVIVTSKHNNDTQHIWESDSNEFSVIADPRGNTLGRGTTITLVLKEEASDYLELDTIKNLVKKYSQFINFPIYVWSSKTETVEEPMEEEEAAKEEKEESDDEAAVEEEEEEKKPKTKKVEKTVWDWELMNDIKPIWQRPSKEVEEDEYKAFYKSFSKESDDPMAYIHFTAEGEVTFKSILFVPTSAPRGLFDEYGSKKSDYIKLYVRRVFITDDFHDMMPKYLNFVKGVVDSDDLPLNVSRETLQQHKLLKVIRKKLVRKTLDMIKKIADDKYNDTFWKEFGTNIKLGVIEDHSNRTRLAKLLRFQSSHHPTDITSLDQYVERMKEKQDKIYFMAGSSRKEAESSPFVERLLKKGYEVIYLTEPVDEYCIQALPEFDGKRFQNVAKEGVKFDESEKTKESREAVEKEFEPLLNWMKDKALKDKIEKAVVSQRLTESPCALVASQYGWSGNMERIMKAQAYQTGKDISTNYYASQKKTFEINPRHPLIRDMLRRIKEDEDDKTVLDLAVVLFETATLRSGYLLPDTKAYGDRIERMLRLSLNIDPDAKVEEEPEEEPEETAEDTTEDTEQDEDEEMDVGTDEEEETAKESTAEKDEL

SMILES | Cancer-cell permeability / uptake [1] | IC50 (K562 cells; Figure 2a, Alamar Blue) [nM] | Isolation of Hsp90 from K562 lysates on streptavidin beads (Hsp90 [2]) | Effect on Raf-1 steady-state levels (Raf-1 degradation) [1] | Isolation of Hsp90 from live K562 cells (band at 90 kDa, Coomassie) [3] | Preference in affinity purification of cytosolic Hsp90 over Grp94 [4] | Affinity for Grp94 (Grp94 [5]) [nM] | Isolation of Hsp90 in complex with onco-client protein Raf-1 [3] | Affinity for Hsp90 (Hsp90 [6]) [nM] | EC50 [7] [nM] | IC50 (K562 cells) [nM] | Binding to cytosolic and ER Hsp90 paralogues (Grp94 [8])
Nc1ncnc2c1nc(Sc1cc3c(cc1I)OCO3)n2CCCNCCOCCOCCOCCNC(=O)CCCC[C@@H]1SC[C@@H]2NC(=O)N[C@@H]21 [2a] | poor cancer-cell permeability | 5000 | modest probe for affinity purifications | – | – | – | – | – | – | – | – | –
Nc1ncnc2c1nc(Sc1cc3c(cc1I)OCO3)n2CCCNC(=O)CCCCCNC(=O)CCCC[C@@H]1SC[C@@H]2NC(=O)N[C@@H]21 [2e] | – | 1350 | unable to affinity purify Hsp90 | almost complete Raf-1 degradation | faint band or no band at 90 kDa | – | – | – | – | – | – | –
Nc1ncnc2c1nc(Sc1cc3c(cc1I)OCO3)n2CCCNC(=O)CCCC[C@@H]1SC[C@@H]2NC(=O)N[C@@H]21 [2c] | – | 250 | unable to affinity purify Hsp90 | almost complete Raf-1 degradation | faint band or no band at 90 kDa | – | – | – | – | – | – | –
CC(C)N(CCCn1c(Sc2cc3c(cc2I)OCO3)nc2c(N)ncnc21)C(=O)CCCCCNC(=O)CCCCCNC(=O)CCCC[C@@H]1SC[C@@H]2NC(=O)N[C@@H]21 [2f] | – | 4960 | isolated substantial amounts of Hsp90 | failed to exhibit such properties; also recorded: to some degree | – | substantial preference | 210 | Most efficient | 98 | – | – | –
CC(C)N(CCCn1c(Sc2cc3c(cc2I)OCO3)nc2c(N)ncnc21)C(=O)CCOCCOCCOCCOCCNC(=O)CCCC[C@@H]1SC[C@@H]2NC(=O)N[C@@H]21 [2h] | – | 7010 | isolated substantial amounts of Hsp90 | failed to exhibit such properties; also recorded: failed to substantially degrade Raf-1 | – | substantial preference | 313 | Most efficient | 137 | – | – | –
Nc1ncnc2c1nc(Sc1cc3c(cc1I)OCO3)n2CCCNC(=O)CCOCCOCCOCCOCCNC(=O)CCCC[C@@H]1SC[C@@H]2NC(=O)N[C@@H]21 [2i] | – | 8590 | isolated substantial amounts of Hsp90 | failed to exhibit such properties; also recorded: failed to substantially degrade Raf-1 | – | substantial preference | 226 | Most efficient | 83 | – | – | –
Nc1ncnc2c1nc(Sc1cc3c(cc1I)OCO3)n2CCCNC(=O)CCCCCNC(=O)CCCCCNC(=O)CCCC[C@@H]1SC[C@@H]2NC(=O)N[C@@H]21 [2g] | substantially taken up by the cancer cell; also recorded: good permeability | 1130 | isolated substantial amounts of Hsp90 | almost complete Raf-1 degradation | – | substantial preference | 451 | Most efficient | 45 | – | – | –
CC(C)N(CCCn1c(Sc2cc3c(cc2I)OCO3)nc2c(N)ncnc21)C(=O)CCCC[C@@H]1SC[C@@H]2NC(=O)N[C@@H]21 [2b] | – | 2630 | unable to affinity purify Hsp90 | almost complete Raf-1 degradation | faint band or no band at 90 kDa | – | – | – | – | – | – | –
CC(C)NCCCn1c(Sc2cc3c(cc2I)OCO3)nc2c(N)ncnc21 [1a, PU-H71] | – | – | – | – | – | – | – | – | – | 24.5 | 80 | binds equally well to the cytosolic and the ER paralogues
CC(C)N(CCCn1c(Sc2cc3c(cc2I)OCO3)nc2c(N)ncnc21)C(=O)CCCCCNC(=O)CCCC[C@@H]1SC[C@@H]2NC(=O)N[C@@H]21 [2d] | – | 2190 | – | almost complete Raf-1 degradation | faint band or no band at 90 kDa | – | – | – | – | – | – | –
NCCCn1c(Sc2cc3c(cc2I)OCO3)nc2c(N)ncnc21 [1b] | – | – | – | – | – | – | – | – | – | 26 | – | –
